Experimental data published in patent publication US8617563B2, “Antichlamydial agents” (Duke University, priority 2011, dated 2013).
“Also recorded” adds a separate entry of the source. Where no end group is shown, it is not given here.

What was measured:
[1] = tested on: epithelial cells infected with C. trachomatis; test: Host cell death (condensed nuclei) in C. trachomatis infected cells; type: cell-based; details: dose-dependent, peptide at 12 hpi
Procedure: FIG. 11 depicts (A) that inhibiting CPAF activity induces host cell death. The indicated peptides (anti-CPAF peptide refers to SEQ ID NO:7) were added to infected cells 12 hpi and the percentage of infected cells with condensed nuclei was quantified at the indicated times. (B-C) Inhibition of CPAF activity induces apoptosis. Infected cells were treated with peptides and the percentage of AnnexinV-FITC positive (propidium iodide (PI) negative) was determined by flow cytometry (B). In parallel samples, cleavage of Caspase-3, a hallmark of apoptosome activation, was monitored by immunoblot analysis. Actin and MOMP are host and bacterial loading controls respectively. Staurosporine (2 μM)-treatment was used as a positive control and the pan-caspase inhibitor ZVAD-FMK were used as controls. (D) Cell death is blocked by a pan-Caspase inhibitor. Infected cells were treated as in (A) in the presence or absence of ZVAD-FMK, labeled with PI and analyzed by flow cytometry. Cells pre-treated with ZVAD-FMK and the control peptide lacked PI staining.
FIG. 12 depicts (A) low-magnification view of C. trachomatis LGV-L2 infected HeLa monolayers (30 h) treated with SEQ ID NO:7 or SEQ ID NO:11 peptides. […] HeLa cells infected with C. muridarum were treated with Ac-YVAD-CMK at 2 hpi, SEQ ID NO:7 peptide or SEQ ID NO:11 control peptide at 12 hpi and the percentage of infected cells with condensed nuclei was assessed at 48 hpi (F). […] The percentage of infected cells with condensed nuclei was assessed at 48 hpi (G). […] Cell death in infected and uninfected cells treated with CPAF inhibitory peptides or control peptides was determined by counting the number of condensed nuclei of ˜1000 cells.
FIG. 13 depicts (A) that Caspase-1 inhibitors block Chlamydia-mediated cell death. […] Cells were fixed and the percentage of cells with condensed nuclei determined at 24 hpi. […] Infected cells were labeled with a cell-permeable fluorescent substrate of Caspase-1 and treated with inhibitory peptides, and Caspase-1 activity was monitored by flow cytometry. […]

[2] = tested on: Chlamydia-infected HeLa cells; test: Inclusion integrity and vimentin cage by immunofluorescence and TEM; type: cell-based, C. trachomatis; details: for Vimentin re-organization / cage around the inclusion: infected HeLa cells treated with peptide
Procedure: FIG. 9 depicts (A) CPAF inhibitory peptides block the generation of Chlamydia infectious particles. L2-infected HeLa cells were treated at 12 hpi with increasing concentration of peptides. EBs were harvested at 30 hpi and inclusion-forming units (IFU) were quantified on fresh cell monolayers. (B-D) CPAF activity is required to maintain inclusion integrity. The integrity of the inclusion was determined by assessing the immunolocalization of the inclusion membrane marker IncA (red) and Chlamydia (green) (B) and by transmission electron microscopy (C). […] (D) The percentage of vimentin-positive inclusions was determined by IF in infected cells treated with SEQ ID NO:7 and SEQ ID NO:11 (12 hpi) peptides at 24 hpi. (E) Activation of inflammatory cytokines upon inhibition of CPAF activity. Levels of IL-8 supernatants from Chlamydia infected cells treated with peptides as in (B-D) were determined at 24 hpi by ELISA.
FIG. 19 depicts HeLa cells infected with C. trachomatis L2, treated with SEQ ID NO:11 and SEQ ID NO:7, and harvested at 30 hpi. (A) Immunofluorescence microscopy via staining with an anti-vimentin antibody (“vimentin”) and an anti-Chlamydia L2 antibody (“L2”). […] (B) Cells were lysed in the presence of protease inhibitors, resolved by SDS-PAGE, and subjected to immunoblot analysis. Vimentin, RpoD (bacterial loading control), and GAPDH (host loading control) were visualized with substrate-specific antibodies).
For routine indirect immunofluorescence, HeLa cells were grown on glass coverslips and infected with Chlamydia at an MOI of 1. At the indicated times post-infection, cells were fixed with cold 3% formaldehyde, permeabilized with 0.1% Tx-100, blocked in 2% bovine serum albumin (BSA), and incubated with primary antibody followed by secondary fluorophore-conjugated anti-rabbit or anti-mouse IgG (available from Molecular Probes). Host and Chlamydial DNA were stained with 1 μM Hoechst (available from Invitrogen). […]

[3] = tested on: C. muridarum; test: C. muridarum growth in HeLa cells (recovered IFUs); type: cell-based; details: infected HeLa cells, recovered IFUs
Procedure: Cells were infected with an MOI of 1 and treated with CPAF inhibitor (SEQ ID NO:7) or control (SEQ ID NO:11) peptides at 12 hpi, fixed at 24 hpi and analyzed by IF with anti-L2 polyclonal antisera. Inclusion size was determined by measuring the inclusion diameter in μm by confocal microscopy of 50 infected cells. The number of cells with fragmented inclusions was determined by counting the number of infected cells out of 50 with more than one inclusion. (C) Sequence alignment and % sequence identify of full length CPAF and predicted inhibitory peptide sequence between C. trachomatis serovar LGV-L2, Chlamydia muridarum, and Chlamydophila caviae was determined using Geneious software (available at the Geneious website). […] GPIC or C. muridarum infected whole cell protein lysate was preincubated with SEQ ID NO:7 peptide or SEQ ID NO:11 control peptide, mixed with GST-IncC at 37° C., resolved by SDS-PAGE and stained with Coomassie blue. […] Inhibition of C. muridarum (E) and C. ceviae (F) growth was determined by counting the number of recovered IFUs. […] Inclusions were detected by IF with anti-LGV-L2 (A, B, E) antisera or anti-chlamydial LPS (F) monoclonal antibodies, and host nuclei sere detected by staining.

SLFYSPMVPHFWAELRNHYATSGLKRRRRRRRRR-NH2 [SEQ ID NO:7]
Number of condensed nuclei in C. trachomatis infected cells [1]: marked increase in the number of condensed nuclei
Vimentin re-organization / cage around the inclusion [2]: loss of vimentin re-organization around the inclusion; also recorded: increased disorder in the position of the vimentin cage
Vimentin re-organization / cage around the inclusion ([2]; listed as peptide 4): loss of the vimentin cage
Inclusion structure integrity (IncA, Cap1 localisation) ([2]; prolonged treatment (>8 h)): collapse of the inclusion structure
C. muridarum replication [3]: blocked C. muridarum replication; also recorded: impairs growth in C. muridarum
